According to patent publication US20090074844A1, “TRENADERMAL ABSORPTION PREPARATION” (ONO PHARMACEUTICAL CO., LTD., priority 2005, published 2009):

Legend:
[1] = In vitro skin permeability test (1), Franz type cell; format: in vitro ADME, rat; details: for cumulative permeation quantity until 24 hours: patch (pharmaceutical preparation 1A, 0.2 mg/cm^2) on rat abdominal skin, determined as compound B or PGE1, FIG. 1
Description: The hair-removed skin extracted from the abdominal region of each of male Wister rats (7 weeks of age, Wister/Slc, n=3) was attached to a Franz type cell (1.1 cm in diameter). The aforementioned pharmaceutical preparation 1A prepared in Example 1 was applied to the stratum corneum of the hair-removed skin extracted from the abdominal region. Hanks' buffer (HBSS) (Sigma, pH 7.4) was applied to the dermal layer side cell. HBSS (200 μL) was periodically collected from the dermal layer side cell, and compound B as the active form of compound A or PGE1 was determined by the HPLC method under the following conditions. Cumulative permeation quantities until 24 hours were determined to calculate average values.
Compound A (Active Form: Compound B)
Column: YMC-Pack ODS A-302 (4.6 mm I.d., 150 mm),
Column temperature: 50° C.,
Moving bed: 0.1% phosphoric acid aqueous solution: acetonitrile=7:3,
Detection wavelength: 220 nm,
Internal standard: ethyl p-hydroxybenzoate.
Column temperature: 30° C.,
Moving bed: 0.02 M potassium hydrogenphosphate aqueous solution:acetonitrile=3:2,
Detection wavelength: 205 nm,
Internal standard: n-propyl p-hydroxybenzoate.
FIG. 1 is a result of the in vitro skin permeability test (1) in Test Example (1) of Biological Examples. The cumulative permeation quantity of compound A represents a value calculated by converting the detected value of compound B into compound A.

[2] = Drug permeability test using human skin, Franz type cell, LC/MS/MS; format: in vitro ADME; details: preparation of Example 3 (70 μg/cm^2, oleyl alcohol), slope of cumulative permeation quantities, FIG. 4, n=3
Description: Drug permeability test using human skin Human skin purchased from Asterand (abdominal skin of a person, epidermal-dermal skin (no heat treatment), n=3) was attached to a Franz type cell (1.78 cm^2), and the pharmaceutical preparation produced in Example 3 was applied to the stratum corneum side. Physiological saline (8 ml) was applied to the dermal layer side cell. From the dermal layer side cell, 1 ml portion thereof was periodically collected, and the compound A and compound B were determined by LC/MS/MS method under the following conditions. Cumulative permeation quantities until 48 hours were determined to calculate average values.
LC/MS/MS Measuring Conditions (HPLC)
Measuring instrument: Perkin-Elmer Series 200 Micro-pumps and CTC […]
Flow rate: 300 μl/minute Injection quantity: 5 μl Running time: 4.5 minutes Retention time: compound A; until 3.45 minutes/compound B; until 3.25 minutes Mass spectrometry […]
Human skin permeability of compound A and compound B which is its active form was measured to calculate the cumulative permeation quantities, with the results shown in FIG. 4. Their skin permeation rates were calculated from the slope of cumulative permeation quantities in FIG. 4. […]
FIG. 4 is a result of a human skin permeability test which used the pharmaceutical preparations produced in Example 3. It represents cumulatively detected amounts of compound A and compound B.

Row | Compound | cumulative permeation quantity until 24 hours ([1]; HBSS pH 7.4) | conversion of compound A into the active form, compound B, during permeation through the skin ([1]; patch preparation 1A on rat abdominal skin) | compound A in the dermal layer side cell ([1]; patch preparation 1A on rat abdominal skin, HBSS pH 7.4) | skin permeation rate [2] [μg/cm^2/hr]
1 | CCCCC[C@H](O)/C=C/[C@H]1[C@H](O)CC(=O)[C@@H]1CCCCCCC(=O)O [PGE1, reference compound] | high cumulative permeation quantity was not obtained |  |  | 
2 | COCc1cccc(C[C@H](O)/C=C/[C@H]2[C@H](O)CC(=O)[C@@H]2CCSCCCC(=O)OC)c1 [compound A, methyl 4-{[2-((1R,2R,3R)-3-hydroxy-2-{(1E,3S)-3-hydroxy-4-[3-(methoxymethyl)phenyl]but-1-enyl}-5-oxocyclopentyl)ethyl]sulfanyl}butanoate] | high cumulative permeation quantity was obtained | completely converted | not detected | 0.16±0.04
3 | COCc1cccc(C[C@H](O)/C=C/[C@H]2[C@H](O)CC(=O)[C@@H]2CCSCCCC(=O)O)c1 [compound B, 4-{[2-((1R,2R,3R)-3-hydroxy-2-{(1E,3S)-3-hydroxy-4-[3-(methoxymethyl)phenyl]but-1-enyl}-5-oxocyclopentyl)ethyl]sulfanyl}butanoic acid] |  |  |  | 0.07±0.01
